Reference: patent publication US12594285B2, “Compositions and methods for protecting against airborne pathogens and irritants” (APPLIED BIOLOGICAL LABORATORIES, INC., priority 2016, dated 2026)

Tests used:
[1] = system: Influenza A H1N1 (clinical strain: A/California/7/09); test: Apical Influenza replication by quantitative RT-PCR (Example 5); assay type: cell-based; conditions: 3.5, 24 and 48 hours pi; Oseltamivir 10 μM in basal medium
[2] = system: Human Rhinovirus A16 (clinical strain: QCHRV.16); test: Apical Rhinovirus replication by quantitative RT-PCR (Example 4); assay type: cell-based; conditions: 3.5, 24 and 48 hours pi; formulations applied apically at 0, 3.5 and 24 h; Rupintrivir 5 μM in basal medium
[3] = system: Human Rhinovirus A16 (clinical strain: QCHRV.16); test: Apical Rhinovirus replication by quantitative RT-PCR (Example 6); assay type: cell-based; conditions: Example 6; Rupintrivir 5 μM in basal medium; 3.5, 24 and 48 hours pi
[4] = system: MucilAir™ 3D model of human airway epithelium infected with Rhinovirus A16; test: TEER tissue integrity, MucilAir inoculated with Rhinovirus A16 (Example 4); conditions: toxic positive control, 10% Triton X-100, after cell damage

Question: Which “Influenza A H1N1 replication (genome copy number, apical washes)” value [1] does the source give for CCOC(=O)C1=C[C@@H](OC(CC)CC)[C@H](NC(C)=O)[C@@H](N)C1 [Oseltamivir] here?
Answer: Its value is “inhibited”.

Question: Which “Rhinovirus A16 replication (genome copy number, apical washes)” value [2] does the source give for CCOC(=O)/C=C/[C@H](C[C@@H]1CCNC1=O)NC(=O)[C@@H](CC(=O)[C@@H](NC(=O)c1cc(C)on1)C(C)C)Cc1ccc(F)cc1 [Rupintrivir] here?
Answer: The value was “inhibited”.

Question: What about the “Rhinovirus A16 replication (genome copy number, apical washes)” value [3] of the same compound?
Answer: The value was “inhibited”.

Question: With Triton X-100 as the compound, how does the TEER [4] read?
Answer: Its TEER is “below 100 Ωcm^2”.
